In ChEMBL document CHEMBL3124838, “Discovery of 6-aryl-azabenzimidazoles that inhibit the TBK1/IKK-ε kinases” (Bioorg Med Chem Lett, 2014):

Assays:
[1] = molecular target: Ribosomal protein S6 kinase alpha-5 (Homo sapiens) (UniProt O75582); assay: Inhibition of human MSK1 assessed as residual activity at 1 uM relative to control
[2] = molecular target: T1, Discoidin domain-containing receptor 2 (Homo sapiens) (UniProt Q16832); assay: Inhibition of human DDR2 assessed as residual activity at 1 uM relative to control
T1 sequence (whole entry): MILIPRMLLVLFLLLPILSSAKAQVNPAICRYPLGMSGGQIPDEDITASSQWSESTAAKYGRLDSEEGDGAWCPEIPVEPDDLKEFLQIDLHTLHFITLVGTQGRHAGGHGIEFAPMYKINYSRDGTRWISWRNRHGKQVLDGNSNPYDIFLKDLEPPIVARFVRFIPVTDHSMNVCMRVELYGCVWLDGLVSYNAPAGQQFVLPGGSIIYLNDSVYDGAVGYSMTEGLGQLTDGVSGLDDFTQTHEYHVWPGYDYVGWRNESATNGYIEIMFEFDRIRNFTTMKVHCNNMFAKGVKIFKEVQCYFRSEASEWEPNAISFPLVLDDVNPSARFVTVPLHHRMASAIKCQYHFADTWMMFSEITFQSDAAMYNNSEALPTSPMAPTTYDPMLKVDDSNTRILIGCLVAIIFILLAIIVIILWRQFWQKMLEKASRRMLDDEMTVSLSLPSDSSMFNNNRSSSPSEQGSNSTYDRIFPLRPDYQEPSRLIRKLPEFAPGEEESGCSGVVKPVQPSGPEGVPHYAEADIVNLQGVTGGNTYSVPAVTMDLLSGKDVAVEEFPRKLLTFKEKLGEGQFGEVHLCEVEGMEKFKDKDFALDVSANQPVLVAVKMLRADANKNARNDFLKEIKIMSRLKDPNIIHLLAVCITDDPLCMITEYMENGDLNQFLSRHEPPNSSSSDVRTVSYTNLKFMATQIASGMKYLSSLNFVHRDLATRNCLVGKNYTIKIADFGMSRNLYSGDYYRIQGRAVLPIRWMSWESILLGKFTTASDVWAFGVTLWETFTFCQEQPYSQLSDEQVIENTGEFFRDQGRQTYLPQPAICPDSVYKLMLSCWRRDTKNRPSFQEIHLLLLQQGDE

[3] = molecular target: Ribosomal protein S6 kinase beta-1 (Homo sapiens) (UniProt P23443); assay: Inhibition of human p70S6K assessed as residual activity at 1 uM relative to control
Sequence of Ribosomal protein S6 kinase beta-1 (Homo sapiens) (P23443 whole entry, looked up): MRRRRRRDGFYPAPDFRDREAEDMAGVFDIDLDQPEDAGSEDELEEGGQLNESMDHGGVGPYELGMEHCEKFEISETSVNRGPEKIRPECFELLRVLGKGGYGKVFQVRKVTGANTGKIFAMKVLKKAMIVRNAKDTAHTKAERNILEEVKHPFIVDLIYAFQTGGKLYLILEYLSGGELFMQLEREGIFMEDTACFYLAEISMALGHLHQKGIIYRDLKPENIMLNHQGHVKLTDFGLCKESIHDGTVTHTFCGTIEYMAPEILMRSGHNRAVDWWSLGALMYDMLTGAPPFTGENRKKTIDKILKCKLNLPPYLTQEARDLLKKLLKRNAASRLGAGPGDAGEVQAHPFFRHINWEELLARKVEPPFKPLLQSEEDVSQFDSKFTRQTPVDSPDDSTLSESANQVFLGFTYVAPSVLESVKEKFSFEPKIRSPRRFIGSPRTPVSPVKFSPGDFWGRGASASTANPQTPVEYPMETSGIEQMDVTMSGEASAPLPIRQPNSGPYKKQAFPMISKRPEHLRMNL

[4] = molecular target: T2, Mitogen-activated protein kinase kinase kinase 7 (Homo sapiens) (UniProt O43318); assay: Inhibition of human TAK1 assessed as residual activity at 1 uM relative to control
T2 sequence (whole entry): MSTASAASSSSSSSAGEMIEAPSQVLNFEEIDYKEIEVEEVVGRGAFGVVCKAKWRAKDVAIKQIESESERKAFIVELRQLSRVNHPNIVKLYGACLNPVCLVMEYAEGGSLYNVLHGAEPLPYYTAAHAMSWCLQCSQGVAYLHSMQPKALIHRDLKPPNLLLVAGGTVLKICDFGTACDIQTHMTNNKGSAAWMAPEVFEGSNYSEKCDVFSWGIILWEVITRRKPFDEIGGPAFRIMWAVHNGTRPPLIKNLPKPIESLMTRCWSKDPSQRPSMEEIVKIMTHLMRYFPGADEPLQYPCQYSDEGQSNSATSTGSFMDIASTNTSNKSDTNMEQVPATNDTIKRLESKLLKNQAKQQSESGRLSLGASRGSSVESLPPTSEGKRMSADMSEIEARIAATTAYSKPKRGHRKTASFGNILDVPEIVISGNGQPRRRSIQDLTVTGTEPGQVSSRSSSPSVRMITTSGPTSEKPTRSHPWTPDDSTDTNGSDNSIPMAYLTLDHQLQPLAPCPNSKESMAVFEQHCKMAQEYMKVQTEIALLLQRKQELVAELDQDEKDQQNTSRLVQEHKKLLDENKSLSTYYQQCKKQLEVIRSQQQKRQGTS

[5] = molecular target: Serine/threonine-protein kinase 10 (Homo sapiens) (UniProt O94804); assay: Inhibition of human LOK assessed as residual activity at 1 uM relative to control
Sequence of Serine/threonine-protein kinase 10 (Homo sapiens) (O94804 whole entry, looked up): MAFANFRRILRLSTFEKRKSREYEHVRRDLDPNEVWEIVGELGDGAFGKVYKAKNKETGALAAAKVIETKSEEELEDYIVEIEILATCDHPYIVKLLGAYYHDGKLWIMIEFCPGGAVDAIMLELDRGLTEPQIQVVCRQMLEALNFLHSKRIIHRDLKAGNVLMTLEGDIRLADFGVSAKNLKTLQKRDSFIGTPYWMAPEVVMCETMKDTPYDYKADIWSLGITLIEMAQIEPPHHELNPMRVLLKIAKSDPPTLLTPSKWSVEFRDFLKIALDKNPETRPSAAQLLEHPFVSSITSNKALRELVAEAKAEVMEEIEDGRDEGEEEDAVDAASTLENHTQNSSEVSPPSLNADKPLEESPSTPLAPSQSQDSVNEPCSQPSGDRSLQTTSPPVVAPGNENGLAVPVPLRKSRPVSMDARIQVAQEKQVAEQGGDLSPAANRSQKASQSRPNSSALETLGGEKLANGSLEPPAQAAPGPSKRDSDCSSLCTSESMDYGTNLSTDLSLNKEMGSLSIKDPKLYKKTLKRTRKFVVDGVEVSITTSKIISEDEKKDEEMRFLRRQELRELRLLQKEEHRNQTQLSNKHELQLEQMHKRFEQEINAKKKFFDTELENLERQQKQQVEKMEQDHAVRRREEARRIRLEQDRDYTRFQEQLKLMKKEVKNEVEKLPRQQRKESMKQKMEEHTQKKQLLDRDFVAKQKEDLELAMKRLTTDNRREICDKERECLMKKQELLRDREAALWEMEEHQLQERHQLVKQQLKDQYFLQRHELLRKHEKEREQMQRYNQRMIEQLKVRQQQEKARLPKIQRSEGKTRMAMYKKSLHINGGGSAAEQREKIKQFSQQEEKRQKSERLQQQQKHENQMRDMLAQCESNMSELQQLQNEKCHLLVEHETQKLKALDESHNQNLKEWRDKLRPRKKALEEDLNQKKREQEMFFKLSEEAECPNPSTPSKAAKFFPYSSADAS

[6] = molecular target: Glycogen synthase kinase-3 alpha (Homo sapiens) (UniProt P49840); assay: Inhibition of human GSK3alpha assessed as residual activity at 1 uM relative to control
Sequence of Glycogen synthase kinase-3 alpha (Homo sapiens) (P49840 2-483 limits assumed): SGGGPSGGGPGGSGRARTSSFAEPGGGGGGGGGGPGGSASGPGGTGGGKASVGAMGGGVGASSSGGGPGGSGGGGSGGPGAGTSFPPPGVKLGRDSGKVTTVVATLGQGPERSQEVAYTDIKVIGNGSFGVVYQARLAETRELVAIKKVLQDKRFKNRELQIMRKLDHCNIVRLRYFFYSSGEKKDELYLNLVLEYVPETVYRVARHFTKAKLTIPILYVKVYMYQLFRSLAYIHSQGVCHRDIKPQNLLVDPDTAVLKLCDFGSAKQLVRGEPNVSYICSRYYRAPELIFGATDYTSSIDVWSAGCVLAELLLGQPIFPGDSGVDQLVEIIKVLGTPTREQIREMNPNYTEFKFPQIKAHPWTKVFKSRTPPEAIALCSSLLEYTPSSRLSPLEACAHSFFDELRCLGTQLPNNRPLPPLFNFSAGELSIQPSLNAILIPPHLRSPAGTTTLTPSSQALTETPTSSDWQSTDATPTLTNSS

[7] = molecular target: T3, Protein kinase C epsilon type (Homo sapiens) (UniProt Q02156); assay: Inhibition of human PKC-epsilon assessed as residual activity at 1 uM relative to control
T3 sequence (whole entry): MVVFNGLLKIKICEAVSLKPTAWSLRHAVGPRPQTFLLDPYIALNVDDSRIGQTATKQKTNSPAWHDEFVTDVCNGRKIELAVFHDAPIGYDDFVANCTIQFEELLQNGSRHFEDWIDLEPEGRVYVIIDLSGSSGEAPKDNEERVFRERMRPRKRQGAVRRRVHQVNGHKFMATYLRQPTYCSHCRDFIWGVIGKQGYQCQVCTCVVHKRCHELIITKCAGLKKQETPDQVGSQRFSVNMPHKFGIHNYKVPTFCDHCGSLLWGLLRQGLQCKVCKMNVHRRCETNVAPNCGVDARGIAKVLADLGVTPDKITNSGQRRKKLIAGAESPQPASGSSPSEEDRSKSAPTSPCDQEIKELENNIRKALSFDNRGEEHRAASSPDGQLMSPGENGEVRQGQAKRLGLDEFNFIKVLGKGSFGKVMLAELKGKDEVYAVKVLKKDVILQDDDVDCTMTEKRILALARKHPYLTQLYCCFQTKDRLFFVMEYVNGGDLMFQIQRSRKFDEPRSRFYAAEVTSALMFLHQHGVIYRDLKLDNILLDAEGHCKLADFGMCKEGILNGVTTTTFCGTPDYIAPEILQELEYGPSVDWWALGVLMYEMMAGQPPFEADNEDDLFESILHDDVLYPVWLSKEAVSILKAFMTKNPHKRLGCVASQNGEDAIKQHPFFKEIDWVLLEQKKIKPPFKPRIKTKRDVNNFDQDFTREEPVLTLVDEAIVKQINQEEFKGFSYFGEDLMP

[8] = molecular target: Tyrosine-protein kinase ABL2 (Homo sapiens) (UniProt P42684); assay: Inhibition of human ARG assessed as residual activity at 1 uM relative to control
Sequence of Tyrosine-protein kinase ABL2 (Homo sapiens) (P42684 whole entry): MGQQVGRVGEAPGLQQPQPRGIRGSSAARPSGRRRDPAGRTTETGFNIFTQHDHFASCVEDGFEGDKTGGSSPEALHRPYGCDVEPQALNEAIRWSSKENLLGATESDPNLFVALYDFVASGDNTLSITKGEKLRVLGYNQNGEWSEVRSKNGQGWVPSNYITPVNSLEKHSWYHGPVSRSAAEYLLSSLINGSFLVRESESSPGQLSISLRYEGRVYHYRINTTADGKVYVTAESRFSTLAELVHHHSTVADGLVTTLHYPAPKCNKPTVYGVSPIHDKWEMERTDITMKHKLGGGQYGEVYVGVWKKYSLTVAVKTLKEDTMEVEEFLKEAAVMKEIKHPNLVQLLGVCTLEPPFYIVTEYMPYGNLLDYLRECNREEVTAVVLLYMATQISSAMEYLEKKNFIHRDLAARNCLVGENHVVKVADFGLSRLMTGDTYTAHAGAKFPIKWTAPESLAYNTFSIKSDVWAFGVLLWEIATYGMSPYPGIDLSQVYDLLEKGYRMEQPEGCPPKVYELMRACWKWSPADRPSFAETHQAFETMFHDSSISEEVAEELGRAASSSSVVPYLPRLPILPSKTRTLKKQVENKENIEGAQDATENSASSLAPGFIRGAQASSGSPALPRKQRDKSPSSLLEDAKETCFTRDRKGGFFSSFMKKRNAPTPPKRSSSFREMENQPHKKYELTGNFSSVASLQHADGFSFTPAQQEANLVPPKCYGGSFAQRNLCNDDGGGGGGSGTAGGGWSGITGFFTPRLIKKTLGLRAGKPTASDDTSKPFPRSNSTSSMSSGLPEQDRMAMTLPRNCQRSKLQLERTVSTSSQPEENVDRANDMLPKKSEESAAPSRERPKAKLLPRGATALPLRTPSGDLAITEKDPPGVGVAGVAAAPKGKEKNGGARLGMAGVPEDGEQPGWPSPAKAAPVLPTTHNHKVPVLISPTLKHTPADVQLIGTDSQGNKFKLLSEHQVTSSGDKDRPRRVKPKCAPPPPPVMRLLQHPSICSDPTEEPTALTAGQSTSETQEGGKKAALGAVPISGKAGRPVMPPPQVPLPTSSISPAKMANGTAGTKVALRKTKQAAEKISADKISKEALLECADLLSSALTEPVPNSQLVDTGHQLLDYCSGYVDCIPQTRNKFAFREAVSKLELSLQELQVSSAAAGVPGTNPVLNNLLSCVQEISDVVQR

Sequence of Ribosomal protein S6 kinase alpha-5 (Homo sapiens) (O75582 whole entry, looked up, the tested form may be a part): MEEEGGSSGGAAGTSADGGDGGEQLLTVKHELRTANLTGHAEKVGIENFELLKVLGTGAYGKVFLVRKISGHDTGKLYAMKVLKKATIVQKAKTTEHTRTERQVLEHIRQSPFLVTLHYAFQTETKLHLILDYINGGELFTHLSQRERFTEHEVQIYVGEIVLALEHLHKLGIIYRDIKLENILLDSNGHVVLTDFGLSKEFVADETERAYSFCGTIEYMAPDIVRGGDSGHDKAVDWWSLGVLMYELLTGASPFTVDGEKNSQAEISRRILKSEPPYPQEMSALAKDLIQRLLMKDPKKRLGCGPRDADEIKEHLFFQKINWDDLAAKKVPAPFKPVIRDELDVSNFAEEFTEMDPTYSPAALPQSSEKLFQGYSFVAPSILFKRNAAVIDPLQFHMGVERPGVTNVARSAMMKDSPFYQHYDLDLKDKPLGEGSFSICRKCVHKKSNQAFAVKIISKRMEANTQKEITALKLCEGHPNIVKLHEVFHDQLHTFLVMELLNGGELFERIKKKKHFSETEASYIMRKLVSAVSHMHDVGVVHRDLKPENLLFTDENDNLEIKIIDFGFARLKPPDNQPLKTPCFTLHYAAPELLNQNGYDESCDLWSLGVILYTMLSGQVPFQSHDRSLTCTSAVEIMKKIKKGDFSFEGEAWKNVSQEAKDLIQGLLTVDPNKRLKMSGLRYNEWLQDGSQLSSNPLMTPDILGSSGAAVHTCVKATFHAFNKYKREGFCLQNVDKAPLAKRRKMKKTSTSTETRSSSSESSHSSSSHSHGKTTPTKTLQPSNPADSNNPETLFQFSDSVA

Activity [1] [%] | Activity [2] [%] | Activity [3] [%] | Activity [4] [%] | Activity [5] [%] | Activity [6] [%] | Activity [7] [%] | Activity [8] [%] | Compound
100 | 101 | 84 | 85 | 100 | 92 | 96 | 38 | COc1ccc(-c2nc3cc(-c4csc(C(=O)NCC(C)C)c4)cnc3[nH]2)cc1
104 | 101 | 80 | 85 | 97 | 102 | 85 | 52 | COc1ccc(-c2nc3cc(-c4csc(C(=O)NCCC(C)C)c4)cnc3[nH]2)cc1
104 | 100 | 87 | 79 | 102 | 95 | 90 | 60 | COc1ccc(-c2nc3cc(-c4csc(C(=O)NCC(C)(C)C)c4)cnc3[nH]2)cc1
